Experiments:
[1] = Inhibition of HIV1 integrase strand transfer activity; set-up: species or system Human immunodeficiency virus 1
[2] = system: Human immunodeficiency virus 1; assay: Antiviral activity against HIV1 infected MT4 cells in presence of 10% FBS; type: functional; settings: Human immunodeficiency virus 1, MT4
[3] = system: Human immunodeficiency virus 1; assay: Antiviral activity against HIV1 infected MT4 cells in presence of 50% NHS; type: functional, organism-based; settings: Human immunodeficiency virus 1, MT4

Structure (SMILES) | IC50 [1] | IC50 [3] | IC95 [2] | IC95 [3]
CNC(=O)c1nn2c(c1O)C(=O)N(Cc1ccc(F)cc1)CC2 | 40 nM | > 10000 nM | 5000 nM | 
CNC(=O)c1cc(F)ccc1CNC(=O)c1nn2c(c1O)C(=O)N(C)C[C@@H]2c1ccccc1 | 74 nM |  | 63 nM | 63 nM
CN1CCn2cc(C(=O)NCc3ccc(F)cc3)c(O)c2C1=O | 400 nM |  |  | 
CNC(=O)c1cccc(C2CN(C)C(=O)c3c(O)c(C(=O)NCc4ccc(F)cc4)nn32)c1 (stereo not given) | ≤ 10 nM |  | 1000 nM | 1000 nM
CNC(=O)c1cc(F)ccc1CNC(=O)c1nn2c(c1O)C(=O)N(C)C[C@H]2c1ccccc1 | 62 nM |  | 250 nM | 250 nM
CN1C(=O)c2c(O)c(C(=O)NCc3ccc(F)cc3)nn2CC1c1ccccc1 (stereo not given) | 110 nM |  |  | 
CNC(=O)c1nn2c(c1O)C(=O)N(Cc1ccc(F)cc1)CC2c1ccccc1 (stereo not given) | 130 nM |  | 10000 nM | > 10000 nM
CN1CC(c2ccccc2)n2nc(C(=O)NCc3ccc(F)cc3)c(O)c2C1=O (stereo not given) | ≤ 10 nM |  | 50 nM | 310 nM

Further lines, with some results ahead:

IC50 [1] | IC50 [3] | Structure (SMILES) | IC95 [2] | IC95 [3]
≤ 10 nM |  | CN1CC(c2csc(N)n2)n2nc(C(=O)NCc3ccc(F)cc3)c(O)c2C1=O (stereo not given) | 500 nM | 1000 nM
13 nM |  | CC1CN(C)C(=O)c2c(O)c(C(=O)NCc3ccc(F)cc3)nn21 (stereo not given) |  | 
470 nM |  | CN1CCCn2nc(C(=O)NCc3ccc(F)cc3)c(O)c2C1=O |  | 
40 nM |  | CC1Cn2nc(C(=O)NCc3ccc(F)cc3)c(O)c2C(=O)N1C (stereo not given) |  | 
20 nM |  | CC(C)C1CN(C)C(=O)c2c(O)c(C(=O)NCc3ccc(F)cc3)nn21 (stereo not given) | 63 nM | 250 nM
≤ 10 nM |  | CN1CCn2nc(C(=O)NCc3ccc(F)cc3)c(O)c2C1=O | 630 nM | 2500 nM
≤ 10 nM |  | CN1CC(c2cccnc2)n2nc(C(=O)NCc3ccc(F)cc3)c(O)c2C1=O (stereo not given) | 250 nM | 500 nM
